Data from patent publication EP2832347B1, “Method for identifying patchouli odorant materials” (Takasago International Corporation, priority 2013, dated 2015).

Molecular target: T1, OR11L1 (Homo sapiens, UniProt Q8NGX0)
T1 construct: expressed in transfected cells; host or cells: HEKOlf (HEK293 stably expressing human Galpha-olf and bovine CNGA2)
T1 sequence (Q8NGX0 1-322): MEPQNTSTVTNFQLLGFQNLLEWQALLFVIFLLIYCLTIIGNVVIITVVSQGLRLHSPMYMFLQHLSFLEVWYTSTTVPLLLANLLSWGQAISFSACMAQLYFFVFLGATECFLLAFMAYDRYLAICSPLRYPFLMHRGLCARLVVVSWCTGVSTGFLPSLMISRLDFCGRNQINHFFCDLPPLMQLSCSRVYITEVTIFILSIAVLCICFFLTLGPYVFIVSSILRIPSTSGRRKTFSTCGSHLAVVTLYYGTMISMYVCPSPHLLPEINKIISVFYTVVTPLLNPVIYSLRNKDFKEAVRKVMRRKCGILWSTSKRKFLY
Experiment: CRE-luciferase reporter assay in HEKOlf cells transiently transfected with OR11L1
Assay type: cell-based
Details: Example 3; 10/30/100 µM
Description: The experiments were performed using a HEK293 cell line (deposited at the ATCC under accession n° CRL-1573) stably expressing the Gαolf G-protein and the cyclic nucleotide gated ion channel A2 subunit (CNGA2) (herein called HEKOlf). As described by Shirokova et al., 2005, the human Gαolf cDNA was cloned into the mammalian expression vector pPuro and cDNA for the bovine cyclic nucleotide gated ion channel A2 (CNGA2) subunit was cloned into the mammalian expression vector pcDNA3. Both constructs were transfected using Lipofectamine2000 (Invitrogen) following the manufacturer's instructions. Cellular clones stably expressing Gαolf and CNGA2 were obtained by antibiotic selection with 0.5µg/ml Puromycin and 200µg/ml Geneticin.
All odorants were stored in the dark at 4°C upon delivery. […]
In this assay, the interaction of an odorant with its cognate olfactory receptor leads to the activation of the human Gαolf G-protein. […] The cells were then transferred into an automated fluorometric imaging plate reader (FLIPR^TETRA, Molecular Devices). […]
The data obtained from different well replicates were analyzed with Excel, ScreenWorks, and SigmaPlot 10. […] The mean and standard deviation of the resulting fold of change values were calculated and plotted in vertical bar charts or concentration-response curves fitted by the SigmaPlot 10 software. […]

SMILES: C[C@H]1CC[C@@]2(O)C(C)(C)[C@@H]3CC[C@@]2(C)[C@H]1C3 [Patchouli alcohol]
- response in cells transfected with OR11L1: unable to elicit a detectable response
